Laboratory results taken from patent publication US8093385B2, “Leukotriene B4 inhibitors” (Hoffmann-La Roche Inc., priority 2007, dated 2012).
Where a name gives a salt, the structure may show the parent alone.

tested on: BLT1 and BLT2 receptors; assay: Ca2+ Flux Assay for LTB4 Antagonist Assay; format: cell-based, Human; conditions: inhibition of LTB4-induced Ca2+ flux (FLIPR), Retinoic Acid induced HL-60 cells endogenously expressing BLT1 and BLT2
Method: Ca^2+ Flux Assay for LTB4 Antagonist Assay
Seventy two hours prior to experiment cells are counted using ViaCount reagent, centrifuged and resuspended at 2.0×10^5 cells /ml density with the complete growth media containing 1 μM Retinoic Acid (Sigma).
On a day of the experiment loading buffer (Calcium-3 Assay Kit, Molecular Devices) was prepared by dissolving the contents of one vial (Express Kit) into 500 ml Hank's Balanced Salt Solution containing 20 mM HEPES and 5 mM probenecid. Equal volume of the loading buffer was mixed with the replacement buffer (Hank's Balanced Salt Solution containing 20 mM HEPES, 0.05% BSA and 5 mM probenecid). Retinoic Acid induced HL-60 cells were counted using ViaCount reagent, centrifuged and resuspended at 2.0×10^6 cells /ml density with the loading buffer/replacement buffer, dispensed into 384 well black/clear microplates (Falcon)(25 μl/well) and placed in a 37° C./5% CO2 incubator for 1 hour.
During the incubation, test compounds were prepared at 6× the desired concentration in HBSS/20 mM HEPES/0.05% BSA as well as LTB4 (Biomol) was prepared at 2.2× concentration in HBSS/20 mM HEPES/0.5% BSA buffer.
After the incubation, both the cell and compound plates were brought to the FLIPR and 5 μl of the diluted compounds were transferred to the cell plates by the FLIPR. Plates were then incubated for 30min at room temperature. After the ½ hour incubation, plates were returned to the FLIPR and 25 μl of 2.2× LTB4 was added to the cell plates. During the assay, fluorescence readings were taken simultaneously from all 384 wells of the cell plate every 1.5 seconds. Five readings were taken to establish a stable baseline, then 25 μl (LTB4) of sample was rapidly and simultaneously added to each well of the cell plate. The fluorescence was continuously monitored before, during and after sample addition for a total elapsed time of 100 seconds. Responses (increase in peak fluorescence) in each well following agonist addition was determined. The initial fluorescence reading from each well, prior to ligand stimulation, was used a zero baseline value for the data from that well. The responses are expressed as % inhibition of the neutral control (neutral control: wells that received buffer plus DMSO but no test compound).

Question: Which IC50 does the source give for `O=C(O)CCCOc1cccc(CCCCCCOc2cc(-c3cccc(F)c3)cc(-c3ccc4c(c3)OCO4)c2)c1CCC(=O)O` [Example 17, 4-{3-[6-(5-Benzo[1,3]dioxol-5-yl-3′-fluoro-biphenyl-3-yloxy)-hexyl]-2-(2-carboxy-ethyl)-phenoxy}-butyric acid bis-sodium salt] here?
Answer: The IC50 was 1190 pM.

same assay, conditions: inhibition of LTB4-induced Ca2+ flux (FLIPR), Retinoic Acid induced HL-60 cells endogenously expressing BLT1 and BLT2; read-out: IC50

Question: Which IC50 does the source give for `O=C(O)CCCOc1cccc(CCCCCCOc2cc(-c3ccccc3)cc(-c3ccc(OC(F)(F)F)cc3)c2)c1CCC(=O)O` [Example 70] here?
Answer: The IC50 was 580 pM.

Question: With `O=C(O)CCCOc1cccc(CCCCCCCc2cc(-c3ccc4c(c3)OCO4)cc(-c3ccc4c(c3)OCO4)c2)c1CCC(=O)O` [Example 52, 4-[3-[7-(3,5-Bis-benzo[1,3]dioxol-5-yl-phenyl)-heptyl]-2-(2-carboxy-ethyl)-phenoxy]-butyric acid] as the compound, how does the IC50 read?
Answer: Its IC50 is 42500 pM.

Question: Which IC50 does the source give for `O=C(O)CCCOc1cccc(CCCCCCOc2cc(-c3ccncc3)cc(-c3ccc4c(c3)OCO4)c2)c1CCC(=O)O` [Example 20, 4-{3-[6-(3-Benzo[1,3]dioxol-5-yl-5-pyridin-4-yl-phenoxy)-hexyl]-2-(2-carboxy-ethyl)-phenoxy}-butyric acid] here?
Answer: The IC50 was 210 pM.

Question: Which IC50 does the source give for `O=C(O)CCCOc1cccc(CCCCCCOc2cc(-c3ccncc3)cc(-c3cccc(F)c3)c2)c1CCC(=O)O` [Example 18, 4-{2-(2-Carboxy-ethyl)-3-[6-(3′-fluoro-5-pyridin-4-yl-biphenyl-3-yloxy)-hexyl]-phenoxy}-butyric acid] here?
Answer: Its IC50 is 180 pM.

Question: For `CN(C)c1ccc(-c2cc(OCCCCCCc3cccc(OCCCC(=O)O)c3CCC(=O)O)cc(-c3ccc(Cl)c(F)c3)c2)cc1` [Example 63, 4-{2-(2-Carboxy-ethyl)-3-[6-(4-chloro-4″-dimethylamino-3-fluoro-[1,1′;3′,1″]terphenyl-5′-yloxy)-hexyl]-phenoxy}-butyric acid], which IC50 is on record?
Answer: Its IC50 is 59800 pM.

Question: How did the IC50 turn out when `O=C(O)CCCOc1cccc(CCCCCCOc2cc(-c3ccccn3)cc(-c3ccccn3)c2)c1CCC(=O)O` [Example 26, 4-(2-(2-Carboxy-ethyl)-3-{6-[3,5-di-pyridin-2-yl-phenoxy]-hexyl}-phenoxy)-butyric acid] was run?
Answer: Its IC50 is 970 pM.

Question: Which IC50 does the source give for `O=C(O)CCCOc1cccc(CCCCCCOc2cc(-c3ccsc3)cc(-c3ccc4c(c3)OCO4)c2)c1CCC(=O)O` [Example 12, 4-{3-[6-(3-Benzo[1,3]dioxol-5-yl-5-thiophen-3-yl-phenoxy)-hexyl]-2-(2-carboxy-ethyl)-phenoxy}-butyric acid] here?
Answer: The IC50 was 210 pM.

Question: With `O=C(O)CCCOc1cccc(CCCCCCOc2cc(-c3ccccc3)cc(-c3ccsc3)c2)c1CCC(=O)O` [Example 13, 4-{2-(2-Carboxy-ethyl)-3-[6-(5-thiophen-3-yl-biphenyl-3-yloxy)-hexyl]-phenoxy}-butyric acid] as the compound, how does the IC50 read?
Answer: Its IC50 is 360 pM.

Question: With `O=C(O)CCCOc1cccc(CCCCCCOc2cc(-c3ccsc3)cc(-c3ccsc3)c2)c1CCC(=O)O` [Example 56, 4-{2-(2-Carboxy-ethyl)-3-[6-(3,5-di-thiophen-3-yl-phenoxy)-hexyl]-phenoxy}-butyric acid] as the compound, how does the IC50 read?
Answer: The IC50 was 580 pM.

Question: Which IC50 does the source give for `O=C(O)CCCOc1cccc(CCCCCCOc2cc(-c3ccncc3)cc(-c3ccc4c(c3)OCCO4)c2)c1CCC(=O)O` [Example 24, 4-(2-(2-Carboxy-ethyl)-3-{6-[3-(2,3-dihydro-benzo[1,4]dioxin-6-yl)-5-pyridin-4-yl-phenoxy]-hexyl}-phenoxy)-butyric acid] here?
Answer: Its IC50 is 230 pM.

Question: Which IC50 does the source give for `O=C(O)CCCOc1cccc(CCCCCC#Cc2cc(-c3ccccc3)cc(-c3ccccc3)c2)c1CCC(=O)O` [Example 48, 4-[2-(2-Carboxy-ethyl)-3-(7-[1,1′;3′,1″]terphenyl-5′-yl-hept-6-ynyl)-phenoxy]-butyric acid] here?
Answer: The IC50 was 2690 pM.

Question: Which IC50 does the source give for `O=C(O)CCCOc1cccc(CCCCCCOc2cc(-c3cccnc3)cc(-c3cccnc3)c2)c1CCC(=O)O` [Example 4, 4-{2-(2-Carboxy-ethyl)-3-[6-(3,5-di-pyridin-3-yl-phenoxy)-hexyl]-phenoxy}-butyric acid] here?
Answer: Its IC50 is 640 pM.

Question: For `O=C(O)CCCOc1cccc(CCCCCCOc2cc(-c3ccccc3)cc(-c3ccccc3)c2)c1CCC(=O)O` [Example 2, 4-{2-(2-Carboxy-ethyl)-3-[6-([1,1′,3,1″]terphenyl-5′-yloxy)-hexyl]-phenoxy}-butyric acid], which IC50 is on record?
Answer: The IC50 was 210 pM.

Question: For `O=C(O)CCCOc1cccc(CCCCCCNc2cc(-c3ccsc3)cc(-c3ccsc3)c2)c1CCC(=O)O` [Example 35, 4-{2-(2-Carboxy-ethyl)-3-[6-(3,5-di-thiophen-3-yl-phenylamino)-hexyl]-phenoxy}-butyric acid], which IC50 is on record?
Answer: Its IC50 is 99100 pM.

Question: For `Cc1cc(C(F)(F)F)c(-c2cc(OCCCCCCc3cccc(OCCCC(=O)O)c3CCC(=O)O)cc(-c3ccsc3)c2)c(=O)n1C` [Example 28, 4-(2-(2-Carboxy-ethyl)-3-{6-[3-(1,6-dimethyl-2-oxo-4-trifluoromethyl-1,2-dihydro-pyridin-3-yl)-5-thiophen-3-yl-phenoxy]-hexyl}-phenoxy)-butyric acid], which IC50 is on record?
Answer: Its IC50 is 99400 pM.

Question: With `O=C(O)CCCOc1cccc(CCCCCCSc2cc(-c3ccccc3)cc(-c3ccccc3)c2)c1CCC(=O)O` [Example 7, 4-{2-(2-Carboxy-ethyl)-3-[6-([1,1′;3′,1″]terphenyl-5′-ylsulfanyl)-hexyl]-pheoxy}-butyric acid] as the compound, how does the IC50 read?
Answer: Its IC50 is 75000 pM.

Question: Which IC50 does the source give for `O=C(O)CCCOc1cccc(CCCCCCOc2cc(-c3ccncc3)cc(-c3ccsc3)c2)c1CCC(=O)O` [Example 14, 4-{2-(2-Carboxy-ethyl)-3-[6-(3-pyridin-4-yl-5-thiophen-3-yl-phenoxy)-hexyl]-phenoxy}-butyric acid] here?
Answer: The IC50 was 200 pM.

Question: `O=C(O)CCCOc1cccc(CCCCCCOc2cc(-c3ccccc3)cc(-c3ccccc3F)c2)c1CCC(=O)O` [Example 97, 4-{2-(2-Carboxy-ethyl)-3-[6-(2-fluoro-[1,1′;3′,1″]terphenyl-5′-yloxy)-hexyl]-phenoxy}-butyric acid] was tested. Which IC50 did it give?
Answer: Its IC50 is 250 pM.

Question: `O=C(O)CCCOc1cccc(CCCCCCOc2cc(-c3ccsc3)cc(-c3ccnc(Cl)c3)c2)c1CCC(=O)O` [Example 15] was tested. Which IC50 did it give?
Answer: Its IC50 is 570 pM.

Question: Which IC50 does the source give for `Cc1cc(-c2cc(OCCCCCCc3cccc(OCCCC(=O)O)c3CCC(=O)O)cc(-c3ccc(N(C)C)cc3)c2)ccc1F` [Example 65, 4-{2-(2-Carboxy-ethyl)-3-[6-(4″-dimethylamino-4-fluoro-3-methyl-[1,1′;3′,1″]terphenyl-5′-yloxy)-hexyl]-phenoxy}-butyric acid] here?
Answer: Its IC50 is 470 pM.

Question: `O=C(O)CCCOc1cccc(CCCCCCOc2cc(-c3ccnc(F)c3)cc(-c3ccnc(F)c3)c2)c1CCC(=O)O` [Example 3, 4-[3-{6-[3,5-Bis-(2-fluoro-pyridin-4-yl)-phenoxy]-hexyl}-2-(2-carboxy-ethyl)-phenoxy]-butyric acid] was tested. Which IC50 did it give?
Answer: Its IC50 is 170 pM.

Question: For `COc1ccc(-c2cc(OCCCCCCc3cccc(OCCCC(=O)O)c3CCC(=O)O)cc(-c3ccc(OC)cc3)c2)cc1` [Example 88, 4-{2-(2-Carboxy-ethyl)-3-[6-(4,4″-dimethoxy-[1,1′;3′,1″]terphenyl-5′-yloxy)-hexyl]-phenoxy}-butyric acid], which IC50 is on record?
Answer: The IC50 was 610 pM.

Question: For `O=C(O)CCCOc1cccc(CCCCCCOc2cc(-c3ccncc3)cc(-c3ccncc3)c2)c1CCC(=O)O` [Example 1, 4-{2-(2-Carboxy-ethyl)-3-[6-(3,5-di-pyridin-4-yl-phenoxy)-hexyl]-phenoxy}-butyric acid], which IC50 is on record?
Answer: Its IC50 is 70 pM.

Question: For `O=C(O)CCCOc1cccc(CCCCCCOc2cc(-c3cncnc3)cc(-c3ccsc3)c2)c1CCC(=O)O` [Example 16, 4-{2-(2-Carboxy-ethyl)-3-[6-(3-pyrimidin-5-yl-5-thiophen-3-yl-phenoxy)-hexyl]-phenoxy}-butyric acid], which IC50 is on record?
Answer: Its IC50 is 390 pM.
